Values of other authors as cited in PMC3606899 (Journal of molecular medicine (Berlin, Germany), 2012).

Molecular target: PHD2 (Homo sapiens, UniProt Q9GZT9)
Test: PHD inhibitor screen, IC50
Assay type: biochemical

PHD2, sequence (Q9GZT9 2-426): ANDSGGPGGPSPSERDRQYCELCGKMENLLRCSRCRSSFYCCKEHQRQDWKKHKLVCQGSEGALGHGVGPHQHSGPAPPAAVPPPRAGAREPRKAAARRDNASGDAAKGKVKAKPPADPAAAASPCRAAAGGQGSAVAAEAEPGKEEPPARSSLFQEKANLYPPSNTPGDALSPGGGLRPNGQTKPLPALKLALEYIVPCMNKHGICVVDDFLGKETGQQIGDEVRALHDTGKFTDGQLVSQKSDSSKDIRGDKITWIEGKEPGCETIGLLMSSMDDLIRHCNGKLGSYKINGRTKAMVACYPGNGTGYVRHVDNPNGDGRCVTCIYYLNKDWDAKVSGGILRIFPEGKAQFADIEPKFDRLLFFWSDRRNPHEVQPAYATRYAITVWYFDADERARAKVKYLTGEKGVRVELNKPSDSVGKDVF

- IC50: 14 µM
Substance: AKB-4924
